# Test results taken from patent publication US20140206682A1, “COMPOUNDS AND COMPOSITIONS AS PDGFR KINASE INHIBITORS” (NOVARTIS PHARMACEUTICALS UK LIMITED, priority 2011, published 2014).
# Tested on: PDGFR
# Assay: Rat A10 cell proliferation assay
# Format: cell-based
# Conditions: Table 1; Rat A10 cells, recombinant rat PDGF-BB, CellTiter-Glo after 68 hours
# Description: Compounds of Formula (I) provided herein were assayed to measure their capacity to inhibit c-kit and PDGFR kinases using the appropriate assay described below: c-Kit inhibition was evaluated using the Mo7e cell proliferation assay, and PDGFR inhibition was evaluated using the Rat A10 cell proliferation assay and the Human TG/HA-VSMC cell proliferation assay.
# Rat A10 cells (ATCC) were resuspended in DMEM supplemented with 1% FBS and 10 ng/mL recombinant rat PDGF-BB at 20,000 cells/mL. The cells were aliquoted into 384 well plates at 50 μL/well and incubated for 4 hours at 37° C. 0.5 μL of test compound 3-fold serially diluted in DMSO was added to each well. The plates were returned to the incubator for a further 68 hours. 25 μL of CellTiter-Glo (Promega) was added to each well and the plates were incubated on the bench for 15 minutes. Luminescence was then read using a CLIPR CCD camera (Molecular Devices).
row,SMILES,IC50
1,"Cc1ccc(C(=O)N[C@@H]2c3ccccc3C[C@H]2O)cc1NC(=O)c1cnc2ccccn12 [F22, N-(5-{[(1R,2R)-2-hydroxy-2,3-dihydro-1H-inden-1-yl]carbamoyl}-2-methylphenyl)imidazo[1,2-a]pyridine-3-carboxamide]",28 nM
2,"Cc1ccc(C(=O)N[C@@H]2c3ccccc3C[C@@H]2O)cc1NC(=O)c1cnc2ccccn12 [F20, N-(5-{[(1R,2S)-2-hydroxy-2,3-dihydro-1H-inden-1-yl]carbamoyl}-2-methylphenyl)imidazo[1,2-a]pyridine-3-carboxamide]",29 nM
3,"Cc1ccc2ncc(C(=O)Nc3cc(C(=O)N[C@@H]4c5ccccc5C[C@@H]4O)ccc3F)n2c1 [F17, N-(2-fluoro-5-{[(1R,2S)-2-hydroxy-2,3-dihydro-1H-inden-1-yl]carbamoyl}phenyl)-6-methylimidazo[1,2-a]pyridine-3-carboxamide]",60 nM
4,"O=C(NCC(O)c1ccccc1Cl)c1ccc(F)c(NC(=O)c2cnc3ccccn23)c1 (stereo not shown) [F120, N-(5-{[2-(2-chlorophenyl)-2-hydroxyethyl]carbamoyl}-2-fluorophenyl)imidazo[1,2-a]pyridine-3-carboxamide]",36 nM
5,"Cc1ccc2ncc(C(=O)Nc3cc(C(=O)N[C@@H]4c5cc(Cl)ccc5C[C@@H]4O)ccc3F)n2c1 (stereo in doubt) [F33, N-(5-{[(1R,2S)-6-chloro-2-hydroxy-2,3-dihydro-1H-inden-1-yl]carbamoyl}-2-fluorophenyl)-6-methylimidazo[1,2-a]pyridine-3-carboxamide]",163 nM
6,"Cc1ccc(C(=O)NCc2ccccc2N2CCC(O)C2)cc1NC(=O)c1cnc2ccccn12 (stereo not shown) [F31, N-[5-({[2-(3-hydroxypyrrolidin-1-yl)phenyl]methyl}carbamoyl)-2-methylphenyl]imidazo[1,2-a]pyridine-3-carboxamide]",42 nM
7,"CN(C)CCCOc1ccc(-c2ccn3c(C(=O)Nc4cc(C(=O)N[C@H]5Cc6ccccc6[C@H]5O)ccc4F)cnc3c2)cn1 (stereo in doubt) [F32, 7-{6-[3-(dimethylamino)propoxy]pyridin-3-yl}-N-(2-fluoro-5-{[(1R,2S)-1-hydroxy-2,3-dihydro-1H-inden-2-yl]carbamoyl}phenyl)imidazo[1,2-a]pyridine-3-carboxamide]",44 nM
8,"[2H]c1c([2H])c([2H])n2c(C(=O)Nc3cc(C(=O)N[C@@H]4c5ccccc5C[C@@H]4O)ccc3F)cnc2c1[2H] [F25, N-(2-fluoro-5-{[(1R,2S)-2-hydroxy-2,3-dihydro-1H-inden-1-yl]carbamoyl}phenyl)-5,6,7,8-tetrahydrogenioimidazo[1,2-a]pyridine-3-carboxamide]",65 nM
9,"Cn1nccc1-c1ccn2c(C(=O)Nc3cc(C(=O)N[C@H](CO)[C@H](O)c4ccccc4)ccc3F)cnc2c1 [F130, N-(5-{[(1R,2R)-1,3-dihydroxy-1-phenylpropan-2-yl]carbamoyl}-2-fluorophenyl)-7-(1-methyl-1H-pyrazol-5-yl)imidazo[1,2-a]pyridine-3-carboxamide]",104 nM
10,"CN(C)CCCOc1ccc(-c2ccn3c(C(=O)Nc4cc(C(=O)NC5Cc6ccccc6C5O)ccc4F)cnc3c2)cn1 (stereo not shown) [F13, 7-{6-[3-(dimethylamino)propoxy]pyridin-3-yl}-N-{2-fluoro-5-[(1-hydroxy-2,3-dihydro-1H-inden-2-yl)carbamoyl]phenyl}imidazo[1,2-a]pyridine-3-carboxamide]",56 nM
11,"O=C(N[C@@H]1c2ccccc2C[C@H]1O)c1ccc(F)c(NC(=O)c2cnc3ccccn23)c1 [F7, N-(2-fluoro-5-{[(1R,2R)-2-hydroxy-2,3-dihydro-1H-inden-1-yl]carbamoyl}phenyl)imidazo[1,2-a]pyridine-3-carboxamide]",138 nM
12,"Cn1nccc1-c1ccn2c(C(=O)Nc3cc(C(=O)NC4Cc5ccccc5C4O)ccc3F)cnc2c1 (stereo not shown) [F14, N-{2-fluoro-5-[(1-hydroxy-2,3-dihydro-1H-inden-2-yl)carbamoyl]phenyl}-7-(1-methyl-1H-pyrazol-5-yl)imidazo[1,2-a]pyridine-3-carboxamide]",32 nM
13,"Cc1ccc2ncc(C(=O)Nc3cc(C(=O)N[C@@H]4c5cc(F)ccc5C[C@@H]4O)ccc3F)n2c1 [F29, N-(2-fluoro-5-{[(1R,2S)-6-fluoro-2-hydroxy-2,3-dihydro-1H-inden-1-yl]carbamoyl}phenyl)-6-methylimidazo[1,2-a]pyridine-3-carboxamide]",105 nM

# Same assay, conditions: Table 2; Rat A10 cells, recombinant rat PDGF-BB, CellTiter-Glo after 68 hours
row,SMILES,IC50
1,"O=C(N[C@H]1CCCC[C@H]1O)c1ccc(F)c(NC(=O)c2cnc3ccccn23)c1 [F50, N-(2-fluoro-5-{[(1S,2R)-2-hydroxycyclohexyl]carbamoyl}phenyl)imidazo[1,2-a]pyridine-3-carboxamide]",373 nM
2,"O=C(N[C@@H]1CCCC[C@@H]1O)c1ccc(F)c(NC(=O)c2cnc3ccccn23)c1 [F82, N-(2-fluoro-5-{[(1R,2S)-2-hydroxycyclohexyl]carbamoyl}phenyl)imidazo[1,2-a]pyridine-3-carboxamide]",304 nM
3,"C[C@H](NC(=O)c1ccc(F)c(NC(=O)c2cnc3ccccn23)c1)[C@@H](O)c1ccccc1 [F95, N-(2-fluoro-5-{[(1S,2S)-1-hydroxy-1-phenylpropan-2-yl]carbamoyl}phenyl)imidazo[1,2-a]pyridine-3-carboxamide]",219 nM
4,"CN(C)CCCOc1ccc(-c2ccn3c(C(=O)Nc4cc(C(=O)N[C@@H]5Cc6ccccc6[C@@H]5O)ccc4F)cnc3c2)cn1 [F39, 7-{6-[3-(dimethylamino)propoxy]pyridin-3-yl}-N-(2-fluoro-5-{[(1S,2R)-1-hydroxy-2,3-dihydro-1H-inden-2-yl]carbamoyl}phenyl)imidazo[1,2-a]pyridine-3-carboxamide]",252 nM
5,"O=C(NCC1(O)CCNCC1)c1ccc(F)c(NC(=O)c2cnc3ccccn23)c1 [F100, N-(2-fluoro-5-{[(4-hydroxypiperidin-4-yl)methyl]carbamoyl}phenyl)imidazo[1,2-a]pyridine-3-carboxamide]",> 9020 nM
6,"O=C(N[C@@H]1CCC[C@@H]1O)c1ccc(F)c(NC(=O)c2cnc3ccccn23)c1 (stereo in doubt) [F66, N-(2-fluoro-5-{[(1R,2S)-2-hydroxycyclopentyl]carbamoyl}phenyl)imidazo[1,2-a]pyridine-3-carboxamide]",1180 nM
7,"O=C(N[C@H]1CCCC[C@@H]1CO)c1ccc(F)c(NC(=O)c2cnc3ccccn23)c1 [F51, N-(2-fluoro-5-{[(1S,2S)-2-(hydroxymethyl)cyclohexyl]carbamoyl}phenyl)imidazo[1,2-a]pyridine-3-carboxamide]",387 nM
8,"O=C(N[C@H]1Cc2ccccc2[C@H]1O)c1ccc(F)c(NC(=O)c2cnc3ccccn23)c1 (stereo in doubt) [F46, N-(2-fluoro-5-{[(1R,2S)-1-hydroxy-2,3-dihydro-1H-inden-2-yl]carbamoyl}phenyl)imidazo[1,2-a]pyridine-3-carboxamide]",348 nM
9,"O=C(N[C@H]1CCCC1O)c1ccc(F)c(NC(=O)c2cnc3ccccn23)c1 (stereo in doubt) [F62, N-(2-fluoro-5-{[(1S,2S)-2-hydroxycyclopentyl]carbamoyl}phenyl)imidazo[1,2-a]pyridine-3-carboxamide]",684 nM
10,"O=C(N[C@H]1c2ccccc2C[C@H]1O)c1ccc(F)c(NC(=O)c2cnc3ccc(COCC(F)(F)F)cn23)c1 [F70, N-(2-fluoro-5-{[(1S,2R)-2-hydroxy-2,3-dihydro-1H-inden-1-yl]carbamoyl}phenyl)-6-[(2,2,2-trifluoroethoxy)methyl]imidazo[1,2-a]pyridine-3-carboxamide]",2090 nM
11,"COc1ccc2c(c1)[C@@H](NC(=O)c1ccc(F)c(NC(=O)c3cnc4ccc(C)cn34)c1)[C@@H](O)C2 (stereo in doubt) [F45, N-(2-fluoro-5-{[(1R,2S)-2-hydroxy-6-methoxy-2,3-dihydro-1H-inden-1-yl]carbamoyl}phenyl)-6-methylimidazo[1,2-a]pyridine-3-carboxamide]",345 nM
12,"CC(C)(O)[C@H]1CCCC[C@@H]1NC(=O)c1ccc(F)c(NC(=O)c2cnc3ccccn23)c1 [F102, N-(2-fluoro-5-{[(1S,2S)-2-(2-hydroxypropan-2-yl)cyclohexyl]carbamoyl}phenyl)imidazo[1,2-a]pyridine-3-carboxamide]",425 nM
13,"O=C(NC(CO)c1ccccc1)c1cccc(NC(=O)c2cnc3ccccn23)c1 (stereo not shown) [F65, N-{3-[(2-hydroxy-1-phenylethyl)carbamoyl]phenyl}imidazo[1,2-a]pyridine-3-carboxamide]",1110 nM
14,"O=C(N[C@@H]1Cc2ccccc2[C@H]1O)c1ccc(F)c(NC(=O)c2cnc3ccccn23)c1 [F37, N-(2-fluoro-5-{[(1R,2R)-1-hydroxy-2,3-dihydro-1H-inden-2-yl]carbamoyl}phenyl)imidazo[1,2-a]pyridine-3-carboxamide]",242 nM
15,"O=C(N[C@H]1CCC[C@H]1O)c1ccc(F)c(NC(=O)c2cnc3ccccn23)c1 [F74, N-(2-fluoro-5-{[(1S,2R)-2-hydroxycyclopentyl]carbamoyl}phenyl)imidazo[1,2-a]pyridine-3-carboxamide]",3480 nM
16,"CC(C)[C@H](CO)NC(=O)c1cccc(NC(=O)c2cnc3ccccn23)c1 [F80, N-(3-{[(2R)-1-hydroxy-3-methylbutan-2-yl]carbamoyl}phenyl)imidazo[1,2-a]pyridine-3-carboxamide]",> 10000 nM
17,"O=C(NC12C[C@@H]3C[C@@H](CC(O)(C3)C1)C2)c1ccc(F)c(NC(=O)c2cnc3ccccn23)c1 [F52, N-(2-fluoro-5-{[(5R,7S)-3-hydroxyadamantan-1-yl]carbamoyl}phenyl)imidazo[1,2-a]pyridine-3-carboxamide]",422 nM
18,"CC[C@@H](CO)NC(=O)c1cccc(NC(=O)c2cnc3ccccn23)c1 [F79, N-(3-{[(2S)-1-hydroxybutan-2-yl]carbamoyl}phenyl)imidazo[1,2-a]pyridine-3-carboxamide]",> 10000 nM
